# Patent US20140349970A1 (ABBVIE INC., priority 2009, published 2014)
# Target: T1, Syk catalytic domain (aa 356-635 with a C-terminal His-tag) (Homo sapiens, UniProt P43405)
# T1 construct: His-tag (C); made in house
# Assay: In vitro Syk kinase activity measured by trFRET, Syk catalytic domain
# Assay type: biochemical
# Settings: not given
# Description: In Vitro Syk Kinase Activity Measured by Time-Resolved Fluorescence Resonance Energy Transfer (trFRET)
# 0.14 nM purified Syk catalytic domain (aa 356-635 with a C-terminal His-tag purified in-house by immobilized metal ion affinity chromatography) was mixed with 0.2 μM peptide substrate (biotin-TYR1, Sequence: Biotin-(Ahx)-GAEEEIYAAFFA-COOH) at varying inhibitor concentrations in reaction buffer: 50 mM MOPSO pH 6.5, 10 mM MgCl2, 2 mM MnCl2, 2.5 mM DTT, 0.01% BSA, 0.1 mM Na3VO4 and 0.001 mM ATP. After about 60 min incubation at rt, the reaction was quenched by addition of EDTA (final concentration: 100 mM) and developed by addition of revelation reagents (final approximate concentrations: 30 mM HEPES pH 7.0, 0.06% BSA, 0.006% Tween-20, 0.24 M KF, 80 ng/mL PT66K (europium labeled anti-phosphotyrosine antibody cat #61T66KLB Cisbio, Bedford, Mass.) and 0.6 μg/mL SAXL (Phycolink streptavidin-allophycocyanin acceptor, cat #PJ255, Prozyme, San Leandro, Calif.). The developed reaction was incubated in the dark either at about 4° C. for about 14 h or for about 60 min at rt, then read via a time-resolved fluorescence detector (Rubystar, BMG) using a 337 nm laser for excitation and monitoring emission wavelengths at 665 nm. Within the linear range of the assay, the observed signal at 665 nm was directly related to phosphorylated product and can be used to calculate the IC50 values.
# MOPSO buffer contains: 50 mM MOPSO pH 6.5, 10 mM MgCl2, 2 mM MnCl2, 2.5 mM DTT, 0.01% BSA, and 0.1 mM Na3VO4 HEPES buffer contains: 50 mM HEPES pH 7.1, 2.5 mM DTT, 10 mM MgCl2, 2 mM MnCl2, 0.01% BSA, and 0.1 mM Na3VO4 MOPS buffer contains: 20 mM MOPS pH 7.2, 10 mM MgCl2, 5 mM EGTA, 5 mM Beta-phosphoglycerol, 1 mM Na3VO4, 0.01% Triton-X-100 and 1 mM DTT
# Biotin-TYR1-peptide sequence: Biotin-(Ahx)-GAEEEIYAAFFA-COOH Biotin-TYR2-peptide sequence: Biotin-(Ahx)-AEEEYFFLFA-amide KinEASE 51 peptides were purchased from Cisbio (cat #62ST0PEB, Bedford, Mass.)
# PT66K was purchased from Cisbio (cat #61T66KLB, Bedford, Mass.) EuSTK was purchased from Cisbio (cat #62ST0PEB, Bedford, Mass.) SAXL was purchased from Prozyme (cat #PJ25S, San Leandro, Calif.) Human T-Blasts IL-2 pSTAT5 Cellular Assay
row,Structure (SMILES),IC50 [nM]
1,CC(C)(O)c1ccc(-c2nc(C3CC3)n3c2cnc2[nH]ccc23)cc1 [AC.5.8],< 100
2,Cc1nc(-c2ccc(C3(O)COC3)cc2)c2cnc3[nH]ccc3n12 [AC.1.33],100 to 1000
3,CC(C)(O)c1ccc(-c2nc(CC3CCNCC3)n3c2cnc2[nH]ccc23)cc1 [T.4.1.2],< 100
4,COc1ccc(-c2nn(CCO)c3c2cnc2[nH]ccc23)cc1 [AU.1.3],100 to 1000
5,Cn1ccc2cc(-c3nc(C4CCCCC4)n4c3cnc3[nH]ccc34)ccc21 [AC.3.8],100 to 1000
6,COCCOc1ccc(-c2nc(C)n3c2cnc2[nH]ccc23)cc1 [AC.1.15],100 to 1000
7,Cc1nc(-c2ccc(OCC(=O)O)cc2)c2cnc3[nH]ccc3n12 [AC.1.16],100 to 1000
8,CC(C)(O)c1ccc(-c2nc(CNC(=O)CO)n3c2cnc2[nH]ccc23)cc1 [AC.5.7],100 to 1000
9,Cn1nc(-c2ccc(S(C)(=O)=O)cc2)c2cnc3[nH]ccc3c21 [AR.1.1],100 to 1000
10,COc1ccc(-c2nc(C)n3c2cnc2[nH]ccc23)cc1C [AC.1.37],100 to 1000

# Now from value to molecule:
row,IC50 [nM],Structure (SMILES)
1,100 to 1000,Cc1ccc(-c2nc(C3CCCCC3)n3c2cnc2[nH]ccc23)cc1 [AC.3.32]
2,100 to 1000,Cc1ncccc1-c1nc(-c2ccc(C(C)(C)O)cc2)c2cnc3[nH]ccc3n12 [AC.5.3]
3,< 100,CCc1c(-c2ccc(C(C)(C)O)cc2)[nH]c2ncc3cnnn3c12 [S.1.8]
4,100 to 1000,"CC(=O)c1ccc(-c2nn(C)c3c2cnc2[nH]ccc23)cc1 [W.1.1, 1-(4-(1-Methyl-1,6-dihydropyrazolo[3,4-d]pyrrolo[2,3-b]pyridin-3-yl)phenyl)ethanone]"
5,100 to 1000,CC(C)(O)c1ccc(-c2nc(CN3CCC(N)CC3)n3c2cnc2[nH]ccc23)cc1 [P.3.1.8]
6,100 to 1000,CC(=O)N[C@@H]1C[C@H](c2nc(-c3ccc(C(C)(C)O)cc3)c3cnc4[nH]ccc4n23)N(S(=O)(=O)C2CC2)C1 [AC.5.2]
7,> 10000,COc1ccc(-c2nc(C)n3c2cnc2[nH]ccc23)c(C)c1 [AC.1.17]
8,< 100,"COc1ccc(-c2nn(C)c3c2cnc2[nH]ccc23)cc1 [AU.1.1, 3-(4-methoxyphenyl)-1-methyl-1,6-dihydropyrazolo[3,4-d]pyrrolo[2,3-b]pyridine]"
9,< 100,CCCNC(=O)c1ccc(-c2nc(C)n3c2cnc2[nH]ccc23)cc1 [AC.1.29]
10,1000 to 10000,COc1ccc(-c2nc(C)n3c2cnc2[nH]ccc23)c(Cl)c1 [AC.1.19]
11,< 100,CC(C)(O)c1ccc(-c2ncn3c2cnc2[nH]ccc23)cc1F [AC.4.6]
12,100 to 1000,COc1ccc(-c2nc(C)n3c2cnc2[nH]ccc23)cc1Cl [AC.1.42]
13,100 to 1000,CC(=O)Nc1ccc(-c2nc(C3CCCCC3)n3c2cnc2[nH]ccc23)cc1 [AC.3.7]
14,1000 to 10000,Cc1nc(C2=CCN(C(=O)OC(C)(C)C)CC2)c2cnc3[nH]ccc3n12 [AC.1.13]

# Same assay, conditions: Syk catalytic domain (aa 356-635), trFRET, 0.001 mM ATP
row,Structure (SMILES),IC50 [nM]
1,Cn1cc(-c2cc3c(ncc4cnn(C)c43)[nH]2)c2ccc(C(=O)NC(C)(C)CO)cc21 [J.1.4.3],< 100
2,CCc1c[nH]c2ncc3c(-c4ccc5nccnc5c4)nn(C)c3c12 [N.1.68],1000 to 10000
3,Cn1ncc2cnc3[nH]c(-c4ccc5nccnc5c4)cc3c21 [N.2.8],100 to 1000
4,CC(C)(O)c1ccc(-c2ncn3c2cnc2[nH]ccc23)cc1 [N.1.53],< 100
5,CNC(=O)Cc1cccc(-c2cc3c(ncc4cnn(C)c43)[nH]2)c1 [N.1.9],100 to 1000
6,COc1ccc2c(c1)c(-c1cc3c(ncc4cnc(N(C)C)n43)[nH]1)cn2C [M.1.8],< 100
7,"CN(C)CCNC(=O)Cc1cccc(-c2cc3c(ncc4cnn(C)c43)[nH]2)c1 [Example 1, N-(2-(dimethylamino)ethyl)-2-(3-(1-methyl-1,6-dihydropyrazolo[3,4-d]pyrrolo[2,3-b]pyridin-7-yl)phenyl)acetamide]",100 to 1000
8,"CN1CCN(CCNC(=O)Cc2cccc(-c3cc4c(ncc5cnn(C)c54)[nH]3)c2)CC1 [N.1, 2-(3-(1-Methyl-1,6-dihydropyrazolo[3,4-d]pyrrolo[2,3-b]pyridin-7-yl)phenyl)-N-(2-(4-methylpiperazin-1-yl)ethyl)acetamide]",1000 to 10000
9,COc1ccc2c(c1)c(-c1cc3c(ncc4cnn(C)c43)[nH]1)cn2CC(=O)N1CCOCC1 [N.2.9],< 100
10,CCc1c[nH]c2ncc3c(-c4ccc(OC(C)C)cc4)nn(C)c3c12 [N.1.69],100 to 1000
11,COc1ccc(-c2nc(C)n3c2cnc2[nH]ccc23)cc1C(=O)NCCO [J.1.7.3],100 to 1000
12,CS(=O)(=O)c1ccc(-c2nc(C3CCCN(C(=O)CCO)C3)n3c2cnc2[nH]ccc23)cc1 (centres unmarked) [N.1.62],1000 to 10000
13,CC(C)(O)c1ccc(-c2nc(CN3CCCNCC3)n3c2cnc2[nH]ccc23)cc1 [N.1.97],100 to 1000
14,COc1ccc(-c2ncn3c2cnc2[nH]ccc23)cc1 [N.1.98],< 100
15,COCCc1nc(-c2ccc(OC)cc2)c2cnc3[nH]ccc3n12 [N.1.88],100 to 1000
16,CCc1c[nH]c2ncc3c(-c4cnn(C)c4)nn(C)c3c12 [N.1.76],100 to 1000
17,COCCCNC(=O)Cc1cccc(-c2cc3c(ncc4cnn(C)c43)[nH]2)c1 [N.1.11],100 to 1000
18,Cn1ncc2cnc3[nH]c(-c4cccc(C(=O)N5CCCC5)c4)cc3c21 [N.1.8],100 to 1000
19,CC(=O)c1ccc(-c2cc3c(ncc4cnc(C(=O)NCCN(C)C)n43)[nH]2)cc1 [J.1.5.2],100 to 1000
20,COc1ccc2c(c1)c(-c1cc3c(ncc4nccn43)[nH]1)cn2C [M.1.20],100 to 1000
21,Cn1cc(-c2cc3c(ncc4cnn(C)c43)[nH]2)c2ccccc21 [N.1.24],< 100
22,CC(C)(O)c1ccc(-c2nc(-c3cccnc3CO)n3c2cnc2[nH]ccc23)cc1 [D.2.4],100 to 1000

# Continued, values first:
row,IC50 [nM],Structure (SMILES)
1,100 to 1000,CCCCC(=O)NCc1cccc(-c2cc3c(ncc4cnn(C)c43)[nH]2)c1 [J.1.1.4]
2,< 100,COc1ccc(-c2nc(C3CC3)n3c2cnc2[nH]ccc23)cc1 [N.1.87]
3,100 to 1000,CCc1c(-c2ccc(C(C)(C)O)cc2)[nH]c2ncc3cnc(C)n3c12 [M.1.9]
4,< 100,COc1ccc(-c2cc3c(ncc4cnc(C)n43)[nH]2)cc1 [M.1.25]
5,< 100,CCCc1nc(-c2ccc(OC)cc2)c2cnc3[nH]ccc3n12 [N.1.92]
6,1000 to 10000,COc1ccc(-c2cc3c(ncc4nnc(C)n43)[nH]2)cc1 [M.1.19]
7,1000 to 10000,CCc1c(-c2ccc(OCCN(C)C)cc2)[nH]c2ncc3cnn(C)c3c12 [N.1.80]
8,1000 to 10000,Cc1nnc2cnc3[nH]c(-c4cnn(C)c4)cc3n12 [M.1.12]
9,< 100,"COc1ccc(-c2nn(C)c3c2cnc2[nH]cc(Br)c23)cc1 [AK.1, 8-Bromo-3-(4-methoxyphenyl)-1-methyl-1,6-dihydropyrazolo[3,4-d]pyrrolo[2,3-b]pyridine]"
10,1000 to 10000,COc1ccc2c(c1)c(-c1nc(C3CCCCC3)n3c1cnc1[nH]ccc13)cn2C [N.1.48]
11,< 100,CN(CC(C)(C)CO)C(=O)c1ccc2c(c1)c(-c1cc3c(ncc4cnn(C)c43)[nH]1)cn2C [J.1.8.5]
12,1000 to 10000,CCc1c(-c2cn(C)nc2C)[nH]c2ncc3cnn(C)c3c12 [N.1.37]
13,< 100,"COc1ccc2c(c1)c(-c1cc3c(ncc4cnc([C@@H]5CC[C@H](N)C5)n43)[nH]1)cn2C (relative stereo) [T.1.1, cis-3-(7-(5-Methoxy-1-methyl-1H-indol-3-yl)-6H-imidazo[1,5-a]pyrrolo[2,3-e]pyrazin-1-yl)cyclopentanamine diacetate]"
